Data taken from paper PMC7934871 (JCI Insight, 2021).

Experiments:
acetyl-STAT3 = target: T1, acetyl-STAT3 (Homo sapiens, UniProt P40763); test: Immunoprecipitation of PS-oligo and Western blotting, acetyl-STAT3; format: binding; conditions: HCT116 cells, immunoprecipitation of PS-oligo, Western blotting
T1 construct: endogenous in cells; host or cells: HCT116
Protocol: (§1) Whole cell lysates or tissue homogenates were prepared by using RIPA lysis buffer (50 mM Tris at pH 7.4, 150 mM NaCl, 1 mM EDTA, 0.5% NP-40, 1 mM NaF, 15% glycerol, and 20 mM β-glycerophosphate). A protease inhibitor cocktail (Mini Protease Inhibitor Cocktail; Roche) and a tyrosine phosphatase inhibitor, sodium orthovanadate (Na3VO4, 1 mM), were added freshly to the lysis buffer. Protein amounts were determined by BCA using a Thermo Fisher Scientific kit. Normalized protein amounts were subjected to an SDS-PAGE and transferred onto a nitrocellulose membrane for Western blotting. Proteins were visualized with a chemiluminescent detection kit (Pierce, Thermo Fisher Scientific). The protein levels for STAT1 (sc-346, E-23), STAT3 (sc-482, C-20), STAT5 (sc-74442, A-9), Crm1 (exportin 1) (sc-5595, H-300), CAS (exportin 2) (sc-271537, H-2), exportin 5 (sc-66885, H-300), and exportin 7 (sc-98639, H-82) were determined using antibodies from Santa Cruz Biotechnology Inc. Anti–exportin 3 (exportin T, 630622, LOS1 05-1525), anti–exportin 4 (3499-1), and anti–exportin 6 (11408-1-AP) were from MilliporeSigma, Epitomics, and Proteintech, respectively. […]
labeled PS-acet.-STAT3 peptide. The fluorescence intensity of FAM-labeled PS-acet.-STAT3 peptide in the cells was quantified by flow cytometry. […]
quantification of FAM. […]
above were assessed by qRT-PCR. […]

pY694-STAT5 = test: Western blotting of p-STAT5 in HCT116 cells; format: cell-based, human; conditions: HCT116, 1 µM, 48 hours
Protocol: as §1
Supplemental Figure 4 (related to Figure 1). […] Phosphorylation of STAT3 at Y705 and STAT5 at Y694 was detected by Western blotting after 48 hours treatment of PS-acet.-STAT3 peptide (1 µM) or napabucasin (1 µM) in HCT116 cells. […]

HCT116 xenograft tumors = test: HCT116 xenograft in NSG mice, systemic (i.v.) treatment; format: in vivo, mouse
Protocol: (A) Growth kinetics of HCT116 tumors in NSG mice systemically treated with acet.-STAT3 peptides (1 mg/kg), with or without PS oligonucleotide conjugation, every other day (n = 5). SD is shown. Two-way ANOVA (Tukey’s multiple comparisons test) was used for analyzing the kinetics of tumor growth over the treatment period; ****P < 0.001. […] Lower 2 panels show input total STAT3 protein. […] Penetration of FAM-labeled PS-acet.-STAT3 peptide into tumors was also assessed by immunostaining followed by confocal imaging (second panel from top). The images are representative of 5 tumors per experimental group in A. Scale bars: 50 μm. Insets: original magnification, ×20. The graphs show the quantification for FAM and Ki-67 expression levels and of the mean vessel diameter (data include 5 fields of view per group). SD is shown. One-way ANOVA; ****P < 0.001; ***P < 0.005.
Mouse care and experimental procedures were performed under pathogen-free conditions in accordance with established institutional guidance and approved IACUC protocols from Research Animal Care Committee of the City of Hope. For s.c. tumor challenge, 5 × 10^6 HCT116 cells were injected into NSG mice from The Jackson Laboratory or animal resource core facility at the City of Hope. After tumors reached an average size of 80~100 mm^3, mice were locally or intravenously treated with 1 mg/kg of PO- or PS-peptides (Anaspec) every day or every other day. Control animals were treated with the equal volume of HBSS (Invitrogen, Thermo Fisher Scientific). Tumor growth was measured by a digital caliper every other day. To study the effects of the modified peptides at protein and gene levels, mice were euthanized 4–6 weeks after tumor injection. B16 melanoma lung metastasis was performed by injecting 0.5 × 10^6 B16 cells into bloodstream of C57BL/6 mice (The Jackson Laboratory). One day after tumor challenge, mice were treated intravenously (retro-orbitally) with 1 mg/kg of PO- or PS-acet.-STAT3, PS-unacet.-STAT3, or PS-STAT3-K685R peptides every other day until the endpoint as indicated. Control mice were treated with HBSS. Lungs were excised from the mice, and B16 nodules were visualized by gp100 staining. Lungs were then analyzed for immune responses by immunostaining followed by confocal imaging. For mouse PDAC model, 5 × 10^6 KPC mouse cells were mixed with Matrigel and subcutaneously injected into C57BL/6 mice (The Jackson Laboratory). […] Control animals were treated with the equal volume of HBSS (Invitrogen, Thermo Fisher Scientific). Tumor growth was measured by a digital caliper every other day. To study the effects of the modified peptides at protein and gene levels, mice were euthanized at the endpoint as indicated.

T1 sequence (P40763 whole entry): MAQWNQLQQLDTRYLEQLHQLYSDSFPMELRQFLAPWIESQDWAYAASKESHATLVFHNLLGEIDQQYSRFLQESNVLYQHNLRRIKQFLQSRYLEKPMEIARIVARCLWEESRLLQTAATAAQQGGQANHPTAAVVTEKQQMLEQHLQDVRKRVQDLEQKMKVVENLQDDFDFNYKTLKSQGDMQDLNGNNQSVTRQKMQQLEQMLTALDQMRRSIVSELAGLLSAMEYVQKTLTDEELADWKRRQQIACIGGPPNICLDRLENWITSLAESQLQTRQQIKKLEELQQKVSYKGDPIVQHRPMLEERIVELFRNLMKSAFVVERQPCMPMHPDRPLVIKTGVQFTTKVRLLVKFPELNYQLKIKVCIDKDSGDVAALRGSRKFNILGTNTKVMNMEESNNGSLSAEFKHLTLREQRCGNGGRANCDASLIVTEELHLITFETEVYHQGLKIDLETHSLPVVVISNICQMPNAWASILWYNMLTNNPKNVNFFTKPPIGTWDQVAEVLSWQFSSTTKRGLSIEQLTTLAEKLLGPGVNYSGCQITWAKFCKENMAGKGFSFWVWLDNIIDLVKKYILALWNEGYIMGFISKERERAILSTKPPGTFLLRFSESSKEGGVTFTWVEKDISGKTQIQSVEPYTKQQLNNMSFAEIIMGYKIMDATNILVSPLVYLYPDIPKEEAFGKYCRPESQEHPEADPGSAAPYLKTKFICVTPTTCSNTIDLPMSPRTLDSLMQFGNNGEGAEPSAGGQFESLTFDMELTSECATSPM

**Q.** “PDIPKEEAFGK685(Ac)YCRPESQEHPC-linker-T*C*C*A*T*G*A*G*C*T*T*C*C*T*G*A*T*G*C*T [PS-acet.-STAT3 peptide]” was tested. Which “binding to acetyl-STAT3” value (acetyl-STAT3) did it give?
**A.** The value was “directly bound”.

**Q.** What about the “p-STAT5 (Y694) level” value (pY694-STAT5) of the same substance?
**A.** Its value is “not”.

**Q.** What about the tumor growth (HCT116 xenograft tumors; HCT116 s.c. in NSG mice, 1 mg/kg i.v. every other day, n = 5) of the same substance?
**A.** The tumor growth was “significantly reduced”.

**Q.** What about the “STAT3 activation in tumor xenografts” value (HCT116 xenograft tumors; HCT116 tumor tissues, immunoprecipitation and Western blotting) of the same substance?
**A.** Its value is “downregulated”.

**Q.** And the “cell death in tumor sections (H&E staining)” value (HCT116 xenograft tumors; HCT116 xenograft)?
**A.** The value was “massive cell death”.

**Q.** And the “cell proliferation marker Ki-67 and tumor angiogenesis marker CD31 in tumor tissues” value (HCT116 xenograft tumors; HCT116 xenograft, IF and confocal)?
**A.** Its value is “significant reduction”.

**Q.** And the “proapoptotic genes (TP53, CASP9) in tumor tissues” value (HCT116 xenograft tumors; HCT116 xenograft, qRT-PCR)?
**A.** Its value is “significantly upregulated”.

**Q.** What about the “expression of STAT3 target genes MMP-9 (MMP9) and BCL-XL (BCL2L1) in tumors” value (HCT116 xenograft tumors; HCT116 xenograft, qRT-PCR and Western blotting) of the same substance?
**A.** Its value is “significantly reduced”.
